Reference: ChEMBL document CHEMBL1126250, “Alpha-halo [(phenylphosphinyl)methyl]phosphonates as specific inhibitors of Na(+)-gradient-dependent Na(+)-phosphate cotransport across renal brush border membrane” (1992)

Species on record: Rattus norvegicus
Assay: In vitro inhibition of Na(+)-gradient-dependent uptake of 32 inorganic phosphate (Pi) by BBM vesicles freshly prepared from the rat renal cortex
Format: functional
Design: concentration or dose not given beside the values

In order of rising Inhibition:
1. O=C(O)P(=O)(O)O [FOSCARNET]  -63%
2. O=P(O)(O)C(F)P(=O)(O)c1ccccc1 (configuration not stated)  -49%
3. O=P(O)(O)C(Cl)(Cl)P(=O)(O)c1ccccc1  -39%
4. O=P(O)(O)C(F)(F)P(=O)(O)c1ccccc1  -39%
5. O=P(O)(O)C(Cl)(Br)P(=O)(O)c1ccccc1 (configuration not stated)  -31%
6. O=P(O)(O)C(Cl)P(=O)(O)c1ccccc1 (configuration not stated)  -30%
7. O=P(O)(O)C(Br)(Br)P(=O)(O)c1ccccc1  -22%
